Columns and labels:
Type in all cases: in vivo, human
total testosterone = assay: Serum total testosterone ELISA; conditions: for Total Testosterone: Mean ± SEM
Method: (§1) Prior to the study, participants were randomly assigned to receive either 3 g per day of HMB Free Acid (HMB) (combined with food-grade orange flavors and sweeteners), 400 mg per day of ATP (PEAK ATP®; TSI, Inc.), a combination of both 3 g of HMB and 400 mg per day of ATP, or a placebo (food-grade orange flavors and sweeteners) divided equally into three servings daily with the first serving given 30 minutes prior to exercise and the remaining two servings daily with the mid-day and evening meals. On the non-training days participants were instructed to consume one serving with each of three separate meals. The supplementation was continued daily throughout the training and testing protocols. Each serving was formulated with 1 gram of HMB free acid to account for fill and emptying variation and achieve a minimum effective dosage of 0.800 grams. This dosage would be equivalent to a 1 gram Ca-HMB dosage.
(§2) All blood draws throughout the study were obtained via venipuncture after a 12-hour fast by a trained phlebotomist. Whole blood was collected and transferred into appropriate tubes for obtaining serum and plasma and centrifuged at 1,500 g for 15 min at 4° C. Resulting serum and plasma were then aliquoted and stored at −80° C. until subsequent analyses.
(§3) Samples were thawed one time and analyzed in duplicate for each analyte. All blood draws were scheduled at the same time of day to negate confounding influences of diurnal hormonal variations. Serum total and free testosterone, cortisol, and C-reactive protein (CRP) were assayed via ELISA kits obtained from Diagnostic Systems Laboratories (Webster, Tex.). All hormones were measured in the same assay on the same day to avoid compounded interassay variance. […] Serum creatine kinase (CK) was measured using colorimetric procedures at 340 nm (Diagnostics Chemicals, Oxford, Conn.). Twenty-four hour urine collections were made and 3-methylhistine was determined by previously described methods (Rathmacher et al 1992 and Wilson et al, 2013).

creatine kinase (CK) = assay: Serum creatine kinase (muscle damage), colorimetric; conditions: for CK: Mean ± SEM
Method: as §1, §2, §3

free testosterone = assay: Serum free testosterone ELISA; conditions: for Free Testosterone: Mean ± SEM
Method: as §1, §2, §3

resistance-trained males [1] = assay: Body composition (weight, lean body mass, fat) by dual x-ray absorptiometry, 12-week resistance training study
resistance-trained males [2] = assay: Wingate test peak power (maximal cycling)
Method: Muscle power was assessed during maximal cycling (Wingate Test) and jumping movements. During the cycling test, volunteers were instructed to cycle against a predetermined resistance (7.5% of body weight) as fast as possible for 10 seconds (36). The saddle height was adjusted to the individual's height to produce a 5-10° knee flexion while the foot was in the low position of the central void. A standardized verbal stimulus was provided to each participant. Power output was recorded in real time during the 10-second sprint test, by a computer connected to the standard cycle ergometer (Monark model 894e, Vansbro, Sweden). Peak power (PP) was recorded using Monark Anaerobic Wingate Software, Version 1.0 (Monark, Vansbro, Sweden). The ICC of muscle peak power was 0.96. Prior to the study, participants were randomly assigned to receive either 3 g per day of HMB Free Acid (HMB) (combined with food-grade orange flavors and sweeteners), 400 mg per day of ATP (PEAK ATP®; TSI, Inc.), a combination of both 3 g of HMB and 400 mg per day of ATP, or a placebo (food-grade orange flavors and sweeteners) divided equally into three servings daily with the first serving given 30 minutes prior to exercise and the remaining two servings daily with the mid-day and evening meals. On the non-training days participants were instructed to consume one serving with each of three separate meals. The supplementation was continued daily throughout the training and testing protocols. […] This dosage would be equivalent to a 1 gram Ca-HMB dosage. All participants performed a high volume resistance training protocol during the 12-week study. The phases of the study and measurements taken are shown in FIG. 1, and the exercise protocols for each phase of the study are shown in Tables 1 to 3. The training was divided into 3 phases, with Phase 1 consisting of daily undulating periodization (weeks 1 to 8), Phase 2 consisting of the overreaching cycle (weeks 9 and 10), and Phase 3 consisting of the taper cycle (weeks 11 and 12).

cortisol = assay: Serum cortisol ELISA; conditions: for Cortisol: Mean ± SEM
Method: as §1, §2, §3

C-reactive protein (CRP) = assay: Serum C-reactive protein ELISA; conditions: Mean ± SEM
Method: as §1, §2, §3

resistance-trained males [3] = assay: Skeletal muscle hypertrophy: ultrasonography muscle thickness of quadriceps (VL and VI)
resistance-trained males [4] = assay: Perceived Recovery Status (PRS) scale; conditions: for PRS (perceived recovery score): scale of 0-10, Mean ± SEM
Method: as §1
[…] The PRS scale consists of values between 0-10, with 0-2 being very poorly recovered and with anticipated declines in performance, 4-6 being low to moderately recovered and expected similar performance, and 8-10 representing high perceived recovery with expected increases in performance.

SMILES: CC(C)(O)CC(=O)O [HMB-FA, β-hydroxy-β-methylbutyric acid]
- effect on total testosterone (total testosterone; main effect): no main effect differences
- Total Testosterone (total testosterone; week 0 (baseline)): 708 ± 35 ng/dL
- Total Testosterone (total testosterone; week 1): 708 ± 48 ng/dL
- Total Testosterone (total testosterone; week 4): 730 ± 63 ng/dL
- Total Testosterone (total testosterone; week 8): 652 ± 35 ng/dL
- Total Testosterone (total testosterone; week 9 (overreaching)): 752 ± 61 ng/dL
- Total Testosterone (total testosterone; week 10 (overreaching)): 701 ± 34 ng/dL
- Total Testosterone (total testosterone; week 12): 728 ± 39 ng/dL
- effect on training-induced increase in CK (creatine kinase (CK); compared with placebo, initiation of training and overreaching cycle): significantly attenuated the increase in CK
- CK (creatine kinase (CK); week 0 (baseline)): 158 ± 16 IU/L
- CK (creatine kinase (CK); week 1): 322 ± 35 IU/L
- CK (creatine kinase (CK); week 4): 280 ± 22 IU/L
- CK (creatine kinase (CK); week 8): 255 ± 28 IU/L
- CK (creatine kinase (CK); week 9 (overreaching)): 288 ± 18 IU/L
- CK (creatine kinase (CK); week 10 (overreaching)): 250 ± 14 IU/L
- CK (creatine kinase (CK); week 12): 147 ± 15 IU/L
- effect on free testosterone (free testosterone; main effect): no main effect differences
- Free Testosterone (free testosterone; week 0 (baseline)): 109 ± 10 ng/dL
- Free Testosterone (free testosterone; week 1): 104 ± 8 ng/dL
- Free Testosterone (free testosterone; week 4): 116 ± 11 ng/dL
- Free Testosterone (free testosterone; week 8): 115 ± 9 ng/dL
- Free Testosterone (free testosterone; week 9 (overreaching)): 118 ± 8 ng/dL
- Free Testosterone (free testosterone; week 10 (overreaching)): 116 ± 8 ng/dL
- Free Testosterone (free testosterone; week 12): 127 ± 8 ng/dL
- Lean body mass increase (resistance-trained males [1]; 12-week study): 7.4 ± 0.4 kg
- fat percentage decrease (resistance-trained males [1]; 12-week study): 7.0±0.6%
- DXA Fat (resistance-trained males [1]; week 0 (baseline)): 20.4 ± 1.4%
- DXA LBM (resistance-trained males [1]; week 0 (baseline)): 66.2 ± 2.6 kg
- Weight (resistance-trained males [1]; week 0 (baseline)): 83.1 ± 2.8 kg
- DXA Fat (resistance-trained males [1]; week 4): 17.6 ± 1.4%
- DXA LBM (resistance-trained males [1]; week 4): 69.2 ± 2.7 kg
- Weight (resistance-trained males [1]; week 4): 83.9 ± 2.8 kg
- DXA Fat (resistance-trained males [1]; week 8): 15.9 ± 1.5 %
- DXA LBM (resistance-trained males [1]; week 8): 71.3 ± 2.7 kg
- Weight (resistance-trained males [1]; week 8): 84.8 ± 2.9 kg
- DXA Fat (resistance-trained males [1]; week 12): 13.5 ± 1.5 %
- DXA LBM (resistance-trained males [1]; week 12): 73.5 ± 2.7 kg
- Weight (resistance-trained males [1]; week 12): 85.0 ± 3.0 kg
- Wingate PP gains in power from baseline (resistance-trained males [2]; after the first week of the increased training (overreaching)): 10.2±1.6%
- Wingate PP decrease (resistance-trained males [2]; during the 2-week overreaching cycle): 0.3±0.9%
- effect on cortisol levels (cortisol; during the study, vs placebo): decreased cortisol levels
- Cortisol (cortisol; week 0 (baseline)): 21.5 ± 1.4 µg/dL
- Cortisol (cortisol; week 1): 20.3 ± 1.2 µg/dL
- Cortisol (cortisol; week 4): 20.9 ± 1.0 µg/dL
- Cortisol (cortisol; week 8): 18.8 ± 1.5 µg/dL
- Cortisol (cortisol; week 9 (overreaching)): 19.6 ± 1.1 µg/dL
- Cortisol (cortisol; week 10 (overreaching)): 18.6 ± 1.2 µg/dL
- Cortisol (cortisol; week 12): 17.4 ± 1.2 µg/dL
- CRP (C-reactive protein (CRP); week 0 (baseline)): 1.0 ± 0.1 mg/L
- CRP (C-reactive protein (CRP); week 1): 1.3 ± 0.3 mg/L
- CRP (C-reactive protein (CRP); week 4): 1.0 ± 0.1 mg/L
- CRP (C-reactive protein (CRP); week 8): 0.9 ± 0.01 mg/L
- CRP (C-reactive protein (CRP); week 9 (overreaching)): 1.0 ± 0.1 mg/L
- CRP (C-reactive protein (CRP); week 10 (overreaching)): 1.8 ± 0.8 mg/L
- CRP (C-reactive protein (CRP); week 12): 1.1 ± 0.1 mg/L
- 12-week increases in quadriceps thicknesses (resistance-trained males [3]; 12 weeks): 7.1±1.2 mm
- Quad (quadriceps muscle thickness) (resistance-trained males [3]; week 0 (baseline)): 50.7 ± 1.5 mm
- Quad (quadriceps muscle thickness) (resistance-trained males [3]; week 4): 53.6 ± 1.4 mm
- Quad (quadriceps muscle thickness) (resistance-trained males [3]; week 8): 56.0 ± 1.4 mm
- Quad (quadriceps muscle thickness) (resistance-trained males [3]; week 12): 57.8 ± 1.6 mm
- effect on PRS (resistance-trained males [4]; 12-week study, vs placebo): improved PRS
- PRS (perceived recovery score) (resistance-trained males [4]; week 0 (baseline)): 9.1 ± 0.3
- PRS (perceived recovery score) (resistance-trained males [4]; week 1): 6.3 ± 0.3
- PRS (perceived recovery score) (resistance-trained males [4]; week 4): 7.6 ± 0.3
- PRS (perceived recovery score) (resistance-trained males [4]; week 8): 8.5 ± 0.3
- PRS (perceived recovery score) (resistance-trained males [4]; week 9 (overreaching)): 8.0 ± 0.2
- PRS (perceived recovery score) (resistance-trained males [4]; week 10 (overreaching)): 7.7 ± 0.2
- PRS (perceived recovery score) (resistance-trained males [4]; week 12): 9.5 ± 0.2
